{"source": "paper PMC7486443", "about": "“Generation of Phenothiazine with Potent Anti-TLK1 Activity for Prostate Cancer Therapy” (iScience, 2020)", "test_in_all_cases": "biochemical", "design_in_all_cases": "DiscoverX KINOMEscan scanMAX competition binding panel, single concentration, percent of control; remaining binding: dose or concentration left out as unconfirmed", "conditions_in_all_cases": "KINOMEscan binding, percent of control; read-out: Table S4_SCANMAX REPORT - related to Fig. 1 / Percent Control", "key": {"[1]": {"target": "T1, PCTK2 (Homo sapiens, UniProt Q00537)", "T1 construct": "gene CDK17"}, "[2]": {"target": "TYRO3 (Homo sapiens, UniProt Q06418)", "sequence (Q06418 whole entry)": "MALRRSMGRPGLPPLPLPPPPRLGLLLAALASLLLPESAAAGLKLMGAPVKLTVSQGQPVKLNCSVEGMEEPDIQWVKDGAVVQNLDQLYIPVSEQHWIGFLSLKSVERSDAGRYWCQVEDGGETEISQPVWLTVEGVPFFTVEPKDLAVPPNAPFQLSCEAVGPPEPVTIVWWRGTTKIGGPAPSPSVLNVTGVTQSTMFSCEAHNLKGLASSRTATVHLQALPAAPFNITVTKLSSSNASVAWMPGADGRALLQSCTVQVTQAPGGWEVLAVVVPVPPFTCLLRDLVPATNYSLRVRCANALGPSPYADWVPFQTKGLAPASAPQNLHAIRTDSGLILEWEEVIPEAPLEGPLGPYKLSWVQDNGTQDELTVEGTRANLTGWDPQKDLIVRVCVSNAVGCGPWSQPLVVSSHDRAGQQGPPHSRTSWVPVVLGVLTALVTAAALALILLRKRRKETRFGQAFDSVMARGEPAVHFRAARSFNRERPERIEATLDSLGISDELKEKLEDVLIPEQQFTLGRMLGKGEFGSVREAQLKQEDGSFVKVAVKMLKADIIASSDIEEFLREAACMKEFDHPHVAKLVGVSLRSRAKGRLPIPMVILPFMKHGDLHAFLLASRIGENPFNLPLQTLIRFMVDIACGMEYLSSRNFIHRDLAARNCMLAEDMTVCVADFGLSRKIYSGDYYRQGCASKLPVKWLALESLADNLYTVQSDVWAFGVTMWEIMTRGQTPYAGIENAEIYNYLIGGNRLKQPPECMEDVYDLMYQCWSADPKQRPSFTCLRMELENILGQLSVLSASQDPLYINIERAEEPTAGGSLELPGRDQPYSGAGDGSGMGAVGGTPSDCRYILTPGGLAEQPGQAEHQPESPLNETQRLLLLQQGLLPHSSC"}, "[3]": {"target": "T2, MKK7 (Homo sapiens, UniProt O14733)", "T2 construct": "gene MAP2K7"}, "[4]": {"target": "FGFR3 (Homo sapiens, UniProt P22607)", "sequence (P22607 whole entry)": "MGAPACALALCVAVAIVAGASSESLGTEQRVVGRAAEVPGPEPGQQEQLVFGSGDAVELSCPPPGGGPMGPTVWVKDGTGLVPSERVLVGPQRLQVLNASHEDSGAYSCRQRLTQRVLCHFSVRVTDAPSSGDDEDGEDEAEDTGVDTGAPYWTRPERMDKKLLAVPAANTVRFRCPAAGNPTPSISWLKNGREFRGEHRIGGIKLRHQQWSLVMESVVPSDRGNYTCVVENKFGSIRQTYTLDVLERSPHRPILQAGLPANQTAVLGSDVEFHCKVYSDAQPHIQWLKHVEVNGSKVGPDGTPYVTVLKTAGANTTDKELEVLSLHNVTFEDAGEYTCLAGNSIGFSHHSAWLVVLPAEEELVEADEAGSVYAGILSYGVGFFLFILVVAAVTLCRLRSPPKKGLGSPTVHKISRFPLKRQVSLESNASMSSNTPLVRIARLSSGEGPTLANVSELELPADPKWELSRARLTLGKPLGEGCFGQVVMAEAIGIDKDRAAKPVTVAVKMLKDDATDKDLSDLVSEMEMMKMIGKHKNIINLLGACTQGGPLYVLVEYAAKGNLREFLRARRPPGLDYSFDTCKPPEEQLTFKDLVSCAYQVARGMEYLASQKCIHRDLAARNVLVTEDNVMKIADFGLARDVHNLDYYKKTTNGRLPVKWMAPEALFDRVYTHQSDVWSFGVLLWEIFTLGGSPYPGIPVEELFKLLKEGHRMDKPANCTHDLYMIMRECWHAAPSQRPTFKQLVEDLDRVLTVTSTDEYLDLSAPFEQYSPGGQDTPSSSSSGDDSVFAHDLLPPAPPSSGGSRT"}, "[5]": {"target": "T3, PIK4CB (Homo sapiens, UniProt Q9UBF8)", "T3 construct": "gene PI4KB"}, "[6]": {"target": "T4, ARK5 (Homo sapiens, UniProt O60285)", "T4 construct": "gene NUAK1"}, "[7]": {"target": "T5, RPS6KA4(Kin.Dom.2-C-terminal) (Homo sapiens, UniProt O75676)", "T5 construct": "Kin.Dom.2-C-terminal"}, "[8]": {"target": "LCK (Homo sapiens, UniProt P06239)", "sequence (P06239 whole entry)": "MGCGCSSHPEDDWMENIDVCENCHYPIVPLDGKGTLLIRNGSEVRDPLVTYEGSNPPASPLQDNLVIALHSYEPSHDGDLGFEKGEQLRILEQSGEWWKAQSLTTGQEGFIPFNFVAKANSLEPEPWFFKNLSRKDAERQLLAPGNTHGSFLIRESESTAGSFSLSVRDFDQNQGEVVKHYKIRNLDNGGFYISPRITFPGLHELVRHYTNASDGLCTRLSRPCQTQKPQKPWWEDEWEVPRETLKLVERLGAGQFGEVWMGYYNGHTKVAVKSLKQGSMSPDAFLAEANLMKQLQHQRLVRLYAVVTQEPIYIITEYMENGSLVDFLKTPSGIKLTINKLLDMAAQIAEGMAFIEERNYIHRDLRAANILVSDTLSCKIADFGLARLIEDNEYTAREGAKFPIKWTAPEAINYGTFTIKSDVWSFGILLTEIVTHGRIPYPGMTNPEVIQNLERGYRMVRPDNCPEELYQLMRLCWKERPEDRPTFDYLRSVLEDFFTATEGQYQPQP"}, "[9]": {"target": "EGFR (Homo sapiens, UniProt P00533)"}, "[10]": {"target": "T6, ERK1 (Homo sapiens, UniProt P27361)", "T6 construct": "gene MAPK3"}, "[11]": {"target": "DDR1 (Homo sapiens, UniProt Q08345)", "sequence (Q08345 whole entry)": "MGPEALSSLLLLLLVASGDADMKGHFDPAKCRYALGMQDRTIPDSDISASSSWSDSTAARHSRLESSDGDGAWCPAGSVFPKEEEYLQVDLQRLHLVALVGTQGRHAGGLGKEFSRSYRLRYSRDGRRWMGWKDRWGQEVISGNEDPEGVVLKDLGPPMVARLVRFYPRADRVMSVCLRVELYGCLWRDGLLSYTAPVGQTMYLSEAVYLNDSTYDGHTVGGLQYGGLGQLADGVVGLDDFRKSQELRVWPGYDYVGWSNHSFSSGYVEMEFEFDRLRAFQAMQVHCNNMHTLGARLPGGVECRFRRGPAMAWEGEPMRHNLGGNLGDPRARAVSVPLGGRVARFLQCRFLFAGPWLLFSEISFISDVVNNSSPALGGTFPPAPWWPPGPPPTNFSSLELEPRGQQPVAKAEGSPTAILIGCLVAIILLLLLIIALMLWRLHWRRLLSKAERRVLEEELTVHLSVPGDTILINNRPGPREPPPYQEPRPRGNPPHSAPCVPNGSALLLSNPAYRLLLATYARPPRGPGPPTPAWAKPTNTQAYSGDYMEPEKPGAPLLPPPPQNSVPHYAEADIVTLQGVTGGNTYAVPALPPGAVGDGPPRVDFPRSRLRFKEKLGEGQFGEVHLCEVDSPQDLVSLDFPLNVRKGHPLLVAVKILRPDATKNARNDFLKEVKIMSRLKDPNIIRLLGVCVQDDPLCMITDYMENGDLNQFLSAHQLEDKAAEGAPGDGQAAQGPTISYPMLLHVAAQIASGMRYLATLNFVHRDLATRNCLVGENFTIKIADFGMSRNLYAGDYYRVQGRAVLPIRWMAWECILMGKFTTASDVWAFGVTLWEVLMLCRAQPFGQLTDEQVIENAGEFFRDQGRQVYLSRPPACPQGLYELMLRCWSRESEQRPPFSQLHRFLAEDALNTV"}, "[12]": {"target": "BRSK1 (Homo sapiens, UniProt Q8TDC3)"}, "[13]": {"target": "KIT(D816V) (Homo sapiens, UniProt P10721, D816V)"}, "[14]": {"target": "T7, DCAMKL3 (Homo sapiens, UniProt Q9C098)", "T7 construct": "gene DCLK3"}, "[15]": {"target": "T8, SNARK (Homo sapiens, UniProt Q9H093)", "T8 construct": "gene NUAK2"}, "[16]": {"target": "T9, JAK1(JH2domain-pseudokinase) (Homo sapiens, UniProt P23458)", "T9 construct": "JH2domain-pseudokinase"}, "[17]": {"target": "PIK3CG (Homo sapiens, UniProt P48736)", "sequence (P48736 whole entry)": "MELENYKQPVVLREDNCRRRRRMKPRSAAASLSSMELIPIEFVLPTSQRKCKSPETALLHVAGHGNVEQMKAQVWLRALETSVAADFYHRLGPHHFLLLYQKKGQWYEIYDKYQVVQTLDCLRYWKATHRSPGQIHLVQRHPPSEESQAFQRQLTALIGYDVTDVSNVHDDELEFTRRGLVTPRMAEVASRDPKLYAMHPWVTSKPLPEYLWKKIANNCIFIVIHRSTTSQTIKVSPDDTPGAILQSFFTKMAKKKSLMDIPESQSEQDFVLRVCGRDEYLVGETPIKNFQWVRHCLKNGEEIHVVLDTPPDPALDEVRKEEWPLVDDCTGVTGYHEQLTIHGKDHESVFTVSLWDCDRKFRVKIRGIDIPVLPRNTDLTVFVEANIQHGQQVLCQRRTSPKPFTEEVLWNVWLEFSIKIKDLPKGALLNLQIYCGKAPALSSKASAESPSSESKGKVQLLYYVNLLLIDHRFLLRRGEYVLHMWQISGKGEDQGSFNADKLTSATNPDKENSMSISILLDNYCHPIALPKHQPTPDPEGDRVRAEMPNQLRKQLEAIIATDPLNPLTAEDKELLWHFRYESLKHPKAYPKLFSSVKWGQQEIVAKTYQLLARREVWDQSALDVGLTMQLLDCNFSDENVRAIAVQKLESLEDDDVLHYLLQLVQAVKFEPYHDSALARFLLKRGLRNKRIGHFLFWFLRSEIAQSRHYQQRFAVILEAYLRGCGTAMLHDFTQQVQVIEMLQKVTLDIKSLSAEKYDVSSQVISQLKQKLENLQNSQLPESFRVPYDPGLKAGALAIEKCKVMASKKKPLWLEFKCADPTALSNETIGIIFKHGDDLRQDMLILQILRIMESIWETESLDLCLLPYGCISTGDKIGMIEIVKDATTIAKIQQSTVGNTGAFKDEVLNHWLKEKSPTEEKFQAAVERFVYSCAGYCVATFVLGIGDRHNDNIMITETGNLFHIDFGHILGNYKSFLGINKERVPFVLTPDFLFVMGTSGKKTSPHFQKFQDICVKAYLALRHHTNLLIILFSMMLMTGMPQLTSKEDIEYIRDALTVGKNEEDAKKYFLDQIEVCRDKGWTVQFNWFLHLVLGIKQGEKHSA"}, "[18]": {"target": "PAK4 (Homo sapiens, UniProt O96013)", "sequence (O96013 whole entry)": "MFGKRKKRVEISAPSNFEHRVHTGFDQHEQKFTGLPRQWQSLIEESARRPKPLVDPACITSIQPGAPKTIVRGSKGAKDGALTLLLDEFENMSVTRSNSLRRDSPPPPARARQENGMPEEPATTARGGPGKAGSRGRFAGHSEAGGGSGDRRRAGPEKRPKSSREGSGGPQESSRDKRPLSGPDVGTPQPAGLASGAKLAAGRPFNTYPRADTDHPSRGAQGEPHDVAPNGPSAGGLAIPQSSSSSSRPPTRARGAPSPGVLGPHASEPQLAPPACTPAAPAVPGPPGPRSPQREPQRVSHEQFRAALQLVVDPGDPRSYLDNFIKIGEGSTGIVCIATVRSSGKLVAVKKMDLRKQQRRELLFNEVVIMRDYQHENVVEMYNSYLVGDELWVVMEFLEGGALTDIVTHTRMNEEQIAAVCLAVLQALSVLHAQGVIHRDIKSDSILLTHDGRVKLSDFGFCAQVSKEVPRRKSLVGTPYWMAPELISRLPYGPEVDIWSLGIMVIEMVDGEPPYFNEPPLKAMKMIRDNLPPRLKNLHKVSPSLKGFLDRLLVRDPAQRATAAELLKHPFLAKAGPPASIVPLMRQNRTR"}}, "data": [{"smiles": "c1ccc2c(c1)Sc1ccccc1N2CCN1CCOCC1", "note": "[J54]", "values": [{"measurement": "remaining binding", "setting": "[1]", "result": 100, "unit": "%"}, {"measurement": "remaining binding", "setting": "[2]", "result": 100, "unit": "%"}, {"measurement": "remaining binding", "setting": "[3]", "result": 79, "unit": "%"}, {"measurement": "remaining binding", "setting": "[4]", "result": 97, "unit": "%"}, {"measurement": "remaining binding", "setting": "[5]", "result": 100, "unit": "%"}, {"measurement": "remaining binding", "setting": "[6]", "result": 79, "unit": "%"}, {"measurement": "remaining binding", "setting": "[7]", "result": 94, "unit": "%"}, {"measurement": "remaining binding", "setting": "[8]", "result": 100, "unit": "%"}, {"measurement": "remaining binding", "setting": "[9]", "result": 92, "unit": "%"}, {"measurement": "remaining binding", "setting": "[10]", "result": 100, "unit": "%"}, {"measurement": "remaining binding", "setting": "[11]", "result": 100, "unit": "%"}, {"measurement": "remaining binding", "setting": "[12]", "result": 100, "unit": "%"}, {"measurement": "remaining binding", "setting": "[13]", "result": 96, "unit": "%"}, {"measurement": "remaining binding", "setting": "[14]", "result": 95, "unit": "%"}, {"measurement": "remaining binding", "setting": "[15]", "result": 99, "unit": "%"}, {"measurement": "remaining binding", "setting": "[16]", "result": 99, "unit": "%"}, {"measurement": "remaining binding", "setting": "[17]", "result": 99, "unit": "%"}, {"measurement": "remaining binding", "setting": "[18]", "result": 99, "unit": "%"}]}]}
